Test results published in ChEMBL document CHEMBL5034040, “Amide-to-Ester Substitution as a Strategy for Optimizing PROTAC Permeability and Cellular Activity” (J Med Chem, 2021).

Assay: Permeability of the compound in PBS at pH 7.4 after 16 hrs by PAMPA
Type: ADME
Conditions: read-out: Peff

Structure (SMILES)	Papp at 16 h [×10⁻⁶ cm/s]
Cc1ncsc1-c1ccc([C@H](C)NC(=O)[C@@H]2C[C@@H](O)CN2C(=O)[C@@H](NC(=O)COCCCOCCNC(=O)C[C@@H]2N=C(c3ccc(Cl)cc3)c3c(sc(C)c3C)-n3c(C)nnc32)C(C)(C)C)cc1	0.2
Cc1ncsc1-c1ccc(CNC(=O)[C@@H]2C[C@@H](O)CN2C(=O)[C@@H](NC(=O)COCCOCCOCCNC(=O)C[C@@H]2N=C(c3ccc(Cl)cc3)c3c(sc(C)c3C)-n3c(C)nnc32)C(C)(C)C)cc1	0.01
